Literature values in US20140056935A1, “PEPTIDE WHICH CAN INDUCE ANTIBODY CAPABLE OF RECOGNIZING STEREOSTRUCTURE OF HIV” (priority 2011, published 2014).

Test system: HIV
Conditions: MAGI assay, Non-Patent Document 17

## enfuvirtide
  activity relative to C34 native peptide monomer in terms of EC50 values: about 10 times
